What all share (test): Assay B: in vitro antibacterial activity, broth microdilution MIC (NCCLS)
What all share (assay type): cell-based

Experiment [1] deals with Enterococcus faecalis PIU 1967. The settings on record: Table 2, Assay B, cation-adjusted Mueller Hinton broth, 35° C., 16 to 20 hr; code B = Enterococcus faecalis PIU 1967; unit assumed. A digest of the protocol: (§1)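 MIC is the lowest concentration with no visible growth after serial two-fold dilution in cation-adjusted Mueller Hinton broth, approximately 5×10^5 CFU/mL inoculum, 16-20 h at 35 °C in air (NCCLS). Broth for H. influenzae gets 5 g/L yeast extract, 0.3 mmol/L hematin and 15 mg/L NAD, for S. pneumoniae 3% lysed horse blood; both incubated 20-24 h.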

Another experiment concerns Escherichia coli JUHL. The settings on record: Table 2, Assay B, cation-adjusted Mueller Hinton broth, 35° C., 16 to 20 hr; code D = Escherichia coli JUHL; unit assumed. A digest of the protocol: as §1
Experiment [2] has as its system Haemophilus influenzae DILL AMP R. The settings on record: Table 2, Assay B, Mueller Hinton broth with yeast extract, hematin and NAD, 20 to 24 hr; code E = Haemophilus influenzae DILL AMP R; unit assumed. In a few lines: as §1
For experiment [3], the system named is Staphylococcus aureus ATCC 6538P. Conditions: Table 2, Assay B, cation-adjusted Mueller Hinton broth, 35° C., 16 to 20 hr; code A = Staphylococcus aureus ATCC 6538P; unit assumed. In a few lines: as §1
Experiment [4] relates to Streptococcus pneumoniae ATCC 6303. The settings on record: Table 2, Assay B, Mueller Hinton broth with 3% lysed horse blood, 20 to 24 hr; code F = Streptococcus pneumoniae ATCC 6303; unit assumed. A digest of the protocol: as §1

With `COc1c(-c2cc3c(s2)CC(C)(C)CC3)ccc2c(=O)c(C(=O)O)cn(C3CC3)c12` [Example 236, 1-cyclopropyl-7-(6,6-dimethyl-4,5,6,7-tetrahydro-1-benzothien-2-yl)-8-methoxy-4-oxo-1,4-dihydro-3-quinolinecarboxylic acid], the Antibacterial Activity (MIC's), B in experiment [1] worked out at 1 µg/mL. The same molecule returned an Antibacterial Activity (MIC's), D in the experiment on Escherichia coli JUHL of 4 µg/mL. In experiment [2], the Antibacterial Activity (MIC's), E was 0.5 µg/mL. In experiment [3], this molecule came in with an Antibacterial Activity (MIC's), A of 0.125 µg/mL. The same molecule came in with an Antibacterial Activity (MIC's), F in experiment [4] of 4 µg/mL.

`COc1c(-c2cc3c(s2)C(N)C(F)CC3)ccc2c(=O)c(C(=O)O)cn(C3CC3)c12.Cl` (centres unmarked) [Example 237, 7-(7-amino-6-fluoro-4,5,6,7-tetrahydro-1-benzothien-2-yl)-1-cyclopropyl-8-methoxy-4-oxo-1,4-dihydro-3-quinolinecarboxylic acid hydrochloride] came in with an Antibacterial Activity (MIC's), B in experiment [1] of 0.5 µg/mL. Also, the Antibacterial Activity (MIC's), D in the experiment with Escherichia coli JUHL stood at 0.125 µg/mL. The Antibacterial Activity (MIC's), E in experiment [2] came out at 0.03 µg/mL. In experiment [3], this molecule showed an Antibacterial Activity (MIC's), A of 0.015 µg/mL. In experiment [4], this molecule yielded an Antibacterial Activity (MIC's), F of 0.125 µg/mL.

In experiment [1], `COc1c(-c2cc3c(s2)CC(C)(C)CC3N)ccc2c(=O)c(C(=O)O)cn(C3CC3)c12.Cl` (centres unmarked) [Example 238, 7-(4-amino-6,6-dimethyl-4,5,6,7-tetrahydro-1-benzothien-2-yl)-1-cyclopropyl-8-methoxy-4-oxo-1,4-dihydro-3-quinolinecarboxylic acid hydrochloride] returned an Antibacterial Activity (MIC's), B of 0.5 µg/mL. In the experiment with Escherichia coli JUHL, this molecule returned an Antibacterial Activity (MIC's), D of 0.25 µg/mL. Besides, the Antibacterial Activity (MIC's), E in experiment [2] came to 0.125 µg/mL. The molecule further had an Antibacterial Activity (MIC's), A in experiment [3] of 0.03 µg/mL. Besides, in experiment [4], the Antibacterial Activity (MIC's), F worked out at 0.06 µg/mL.

`COc1c(-c2nc3c(s2)C(=O)CCC3)ccc2c(=O)c(C(=O)O)cn(C3CC3)c12` [Example 239, 1-cyclopropyl-8-methoxy-4-oxo-7-(7-oxo-4,5,6,7-tetrahydro-1,3-benzothiazol-2-yl)-1,4-dihydro-3-quinolinecarboxylic acid] registered an Antibacterial Activity (MIC's), B in experiment [1] of 32 µg/mL. This molecule displayed an Antibacterial Activity (MIC's), D with Escherichia coli JUHL of 32 µg/mL. Also, the Antibacterial Activity (MIC's), E in experiment [2] was 4 µg/mL. In experiment [3], this molecule gave an Antibacterial Activity (MIC's), A of 1 µg/mL. Also, in experiment [4], the Antibacterial Activity (MIC's), F was > 64 µg/mL.

Consider `COc1c(-c2cc3c(s2)C(O)C(F)CC3)ccc2c(=O)c(C(=O)O)cn(C3CC3)c12` (centres unmarked) [Example 240, 1-cyclopropyl-7-(6-fluoro-7-hydroxy-4,5,6,7-tetrahydro-1-benzothien-2-yl)-8-methoxy-4-oxo-1,4-dihydro-3-quinolinecarboxylic acid], for which the Antibacterial Activity (MIC's), B in experiment [1] turned out to be 0.06 µg/mL. In the experiment on Escherichia coli JUHL, this molecule displayed an Antibacterial Activity (MIC's), D of 0.5 µg/mL. In addition, the Antibacterial Activity (MIC's), E in experiment [2] came to 0.03 µg/mL. The Antibacterial Activity (MIC's), A in experiment [3] came out at 0.004 µg/mL. Also, in experiment [4], the Antibacterial Activity (MIC's), F worked out at 1 µg/mL.

Take `COc1c(-c2cc3c(s2)C(O)C(C)(C)CC3)ccc2c(=O)c(C(=O)O)cn(C3CC3)c12` (centres unmarked) [Example 241, 1-cyclopropyl-7-(7-hydroxy-6,6-dimethyl-4,5,6,7-tetrahydro-1-benzothien-2-yl)-8-methoxy-4-oxo-1,4-dihydro-3-quinolinecarboxylic acid]: the Antibacterial Activity (MIC's), B in experiment [1] amounted to 0.25 µg/mL. The Antibacterial Activity (MIC's), D in the experiment with Escherichia coli JUHL was 1 µg/mL. The molecule also had an Antibacterial Activity (MIC's), E in experiment [2] of 0.25 µg/mL. Further, in experiment [3], the Antibacterial Activity (MIC's), A came to 0.015 µg/mL. The Antibacterial Activity (MIC's), F in experiment [4] was 1 µg/mL.

The molecule `COc1c(-c2cc3c(s2)CCCC3)ccc2c(=O)c(C(=O)O)cn(C3CC3)c12` [Example 243, 1-cyclopropyl-8-methoxy-4-oxo-7-(4,5,6,7-tetrahydro-1-benzothien-2-yl)-1,4-dihydro-3-quinolinecarboxylic acid] came in with an Antibacterial Activity (MIC's), B in experiment [1] of 0.25 µg/mL. The Antibacterial Activity (MIC's), D in the experiment on Escherichia coli JUHL is 1 µg/mL. For the same molecule, in experiment [2], the Antibacterial Activity (MIC's), E was 0.25 µg/mL. The Antibacterial Activity (MIC's), A in experiment [3] stood at 0.015 µg/mL. For the same molecule, the Antibacterial Activity (MIC's), F in experiment [4] amounted to 1 µg/mL.

Molecule `COc1c(-c2cc3c(s2)C(N)C(F)(F)CC3)ccc2c(=O)c(C(=O)O)cn(C3CC3)c12.Cl` (centres unmarked) [Example 244, 7-(7-amino-6,6-difluoro-4,5,6,7-tetrahydro-1-benzothien-2-yl)-1-cyclopropyl-8-methoxy-4-oxo-1,4-dihydro-3-quinolinecarboxylic acid hydrochloride] returned an Antibacterial Activity (MIC's), B in experiment [1] of 0.125 µg/mL. This molecule also showed an Antibacterial Activity (MIC's), D with Escherichia coli JUHL of 1 µg/mL. In addition, the Antibacterial Activity (MIC's), E in experiment [2] was 0.06 µg/mL. In addition, the Antibacterial Activity (MIC's), A in experiment [3] was ≤ 0.004 µg/mL. Further, the Antibacterial Activity (MIC's), F in experiment [4] stood at 1 µg/mL.

The molecule `COc1c(-c2cc3c(s2)C(N)C(C)(C)CC3)ccc2c(=O)c(C(=O)O)cn(C3CC3)c12.Cl` (centres unmarked) [Example 245, 7-(7-amino-6,6-dimethyl-4,5,6,7-tetrahydro-1-benzothien-2-yl)-1-cyclopropyl-8-methoxy-4-oxo-1,4-dihydro-3-quinolinecarboxylic acid hydrochloride] registered an Antibacterial Activity (MIC's), B in experiment [1] of 0.25 µg/mL. The Antibacterial Activity (MIC's), D in the experiment with Escherichia coli JUHL was 0.25 µg/mL. Also, the Antibacterial Activity (MIC's), E in experiment [2] turned out to be 0.06 µg/mL. The same molecule had an Antibacterial Activity (MIC's), A in experiment [3] of 0.004 µg/mL. The same molecule came in with an Antibacterial Activity (MIC's), F in experiment [4] of 0.125 µg/mL.

`CNC1CCCc2cc(-c3c(F)cc4c(=O)c(C(=O)O)cn(C5CC5)c4c3OC)sc21.Cl` (centres unmarked) [Example 246, 1-cyclopropyl-6-fluoro-8-methoxy-7-(7-(methylamino)-4,5,6,7-tetrhydro-1-benzothien-2-yl)-4-oxo-1,4-dihydro-3-quinolinecarboxiylic acid hydrochloride]: the Antibacterial Activity (MIC's), B in experiment [1] stood at 0.25 µg/mL. In the experiment with Escherichia coli JUHL, this molecule gave an Antibacterial Activity (MIC's), D of 0.25 µg/mL. In experiment [2], this molecule showed an Antibacterial Activity (MIC's), E of 0.03 µg/mL. This molecule also yielded an Antibacterial Activity (MIC's), A in experiment [3] of 0.004 µg/mL. In experiment [4], this molecule registered an Antibacterial Activity (MIC's), F of 0.06 µg/mL.

With `COc1c(-c2cc3c(s2)CC(=O)C3)ccc2c(=O)c(C(=O)O)cn(C3CC3)c12` [Example 247, 1-cyclopropyl-8-methoxy-4-oxo-7-(5-oxo-5,6-dihydro-4H-cyclopenta[b]thien-2-yl)-1,4-dihydro-3-quinolinecarboxylic acid], the Antibacterial Activity (MIC's), B in experiment [1] worked out at 2 µg/mL. The Antibacterial Activity (MIC's), D in the experiment with Escherichia coli JUHL was determined as 4 µg/mL. The Antibacterial Activity (MIC's), E in experiment [2] was 0.25 µg/mL. Besides, the Antibacterial Activity (MIC's), A in experiment [3] worked out at 0.125 µg/mL. The Antibacterial Activity (MIC's), F in experiment [4] was 0.25 µg/mL.

Regarding `CON=C1Cc2cc(-c3ccc4c(=O)c(C(=O)O)cn(C5CC5)c4c3OC)sc2C1` [Example 248, 1-cyclopropyl-8-methoxy-7-((5E/Z)-5-(methoxyimino)-5,6-dihydro-4H-cyclopenta[b]thien-2-yl)-4-oxo-1,4-dihydro-3-quinolinecarboxylic acid], the Antibacterial Activity (MIC's), B in experiment [1] amounted to 0.25 µg/mL. Moreover, in the experiment with Escherichia coli JUHL, the Antibacterial Activity (MIC's), D was 2 µg/mL. This molecule came in with an Antibacterial Activity (MIC's), E in experiment [2] of 0.5 µg/mL. Also, the Antibacterial Activity (MIC's), A in experiment [3] is 0.03 µg/mL. For the same molecule, in experiment [4], the Antibacterial Activity (MIC's), F came to 0.5 µg/mL.

On to `COc1c(-c2cc3c(s2)CC(N)C3)ccc2c(=O)c(C(=O)O)cn(C3CC3)c12.Cl` (centres unmarked) [Example 249, 7-(5-amino-5,6-dihydro-4H-cyclopenta[b]thien-2-yl)-1-cyclopropyl-8-methoxy-4-oxo-1,4-dihydro-3-quinolinecarboxylic acid hydrochloride], for which the Antibacterial Activity (MIC's), B in experiment [1] stood at 0.125 µg/mL. In the experiment with Escherichia coli JUHL, this molecule displayed an Antibacterial Activity (MIC's), D of 0.06 µg/mL. In experiment [2], this molecule gave an Antibacterial Activity (MIC's), E of 0.015 µg/mL. The molecule further showed an Antibacterial Activity (MIC's), A in experiment [3] of 0.03 µg/mL. The molecule further gave an Antibacterial Activity (MIC's), F in experiment [4] of 0.5 µg/mL.

Values taken from patent US20020049223A1, “Quinoline and naphthyridine carboxylic acid antibacterials” (priority 1999, published 2002).
